melting point [°C]	SMILES
136 to 137	Cc1nc(N2C[C@@H](C)N(Cc3ccc(C(F)(F)F)cc3)C2=O)sc1C(=O)NCc1ccccn1 [Example 2.20, (R)-4-methyl-2-(4-methyl-2-oxo-3-(4-(trifluoromethyl)benzyl)imidazolidin-1-yl)-N-(pyridin-2-ylmethyl)thiazole-5-carboxamide]
273 to 274	Cc1nnc(-c2sc(N3CCN(Cc4ccc(C(F)(F)F)cc4)C3=O)nc2C)[nH]1 [Example 3, 1-(4-methyl-5-(5-methyl-4H-1,2,4-triazol-3-yl)thiazol-2-yl)-3-(4-(trifluoromethyl)benzyl)imidazolidin-2-one]
248 to 249	Cc1nnc(-c2sc(N3CCN(Cc4ccc(F)cc4)C3=O)nc2C)[nH]1 [Example 3.1, 1-(4-fluorobenzyl)-3-[4-methyl-5-(5-methyl-4H-1,2,4-triazol-3-yl)thiazol-2-yl]imidazolidin-2-one]
231 to 233	Cc1cc(-c2sc(N3CCN(CC4CC4)C3=O)nc2C)n[nH]1 [Example 6, 1-(cyclopropylmethyl)-3-(4-methyl-5-(5-methyl-1H-pyrazol-3-yl)thiazol-2-yl)imidazolidin-2-one]
163 to 164	Cc1cc(-c2sc(N3CCN(Cc4cccc(C(F)(F)F)c4)C3=O)nc2C)n[nH]1 [Example 6.1, 1-(4-methyl-5-(5-methyl-1H-pyrazol-3-yl)thiazol-2-yl)-3-(3-(trifluoromethyl)benzyl)imidazolidin-2-one]
218 to 221	Cc1cc(-c2sc(N3CCN(Cc4ccc(F)cc4)C3=O)nc2C)n[nH]1 [Example 6.2, 1-(4-fluorobenzyl)-3-(4-methyl-5-(5-methyl-1H-pyrazol-3-yl)thiazol-2-yl)imidazolidin-2-one]
169 to 171	Cc1nc(N2CCN(CC3CC3)C2=O)sc1-c1cc[nH]n1 [Example 7, 1-(cyclopropylmethyl)-3-(4-methyl-5-(1H-pyrazol-3-yl)thiazol-2-yl)imidazolidin-2-one]
147 to 149	Cc1nc(N2CCN(CCC3CC3)C2=O)sc1-c1cc[nH]n1 [Example 8, 1-(2-cyclopropylethyl)-3-(4-methyl-5-(1H-pyrazol-3-yl)thiazol-2-yl)imidazolidin-2-one]
239 to 242	Cc1nc(N2CCN(Cc3ccc(F)cc3)C2=O)sc1-c1cc[nH]n1 [Example 9, 1-(4-fluorobenzyl)-3-(4-methyl-5-(1H-pyrazol-3-yl)thiazol-2-yl)imidazolidin-2-one]
217 to 218	Cc1nc(N2CCN(Cc3ccccc3)C2=O)sc1C(N)=O [Example 10, 2-(3-benzyl-2-oxoimidazolidin-1-yl)-4-methylthiazole-5-carboxamide]
284 to 287	Cc1nnc(-c2sc(N3CCN(Cc4ccccc4)C3=O)nc2C)[nH]1 [Example 11, 1-benzyl-3-(4-methyl-5-(5-methyl-4H-1,2,4-triazol-3-yl)thiazol-2-yl)imidazolidin-2-one]
144 to 145	Cc1nc(N2CCN(CC3CC3)C2=O)sc1C(=O)NCc1cncc(F)c1 [Example 12, 2-(3-(cyclopropylmethyl)-2-oxoimidazolidin-1-yl)-N-((5-fluoropyridin-3-yl)methyl)-4-methylthiazole-5-carboxamide]
167 to 169	Cc1nc(N2CCN(CCCC(F)(F)F)C2=O)sc1C(=O)NCc1cccnc1 [Example 12.3, 4-methyl-2-(2-oxo-3-(4,4,4-trifluorobutyl)imidazolidin-1-yl)-N-(pyridin-3-ylmethyl)thiazole-5-carboxamide]
123	Cc1cncc(CNC(=O)c2sc(N3CCN(CCCC(F)(F)F)C3=O)nc2C)n1 [Example 12.6, 4-methyl-N-((6-methylpyrazin-2-yl)methyl)-2-(2-oxo-3-(4,4,4-trifluorobutyl)imidazolidin-1-yl)thiazole-5-carboxamide]
178 to 181	Cc1nc(N2CCN(CCCC(F)(F)F)C2=O)sc1C(=O)NCc1ccncc1 [Example 12.7, 4-methyl-2-(2-oxo-3-(4,4,4-trifluorobutyl)imidazolidin-1-yl)-N-(pyridin-4-ylmethyl)thiazole-5-carboxamide]
188 to 191	Cc1nc(N2CCN(CC3CC3)C2=O)sc1C(=O)NCc1ccncn1 [Example 12.10, 2-(3-(cyclopropylmethyl)-2-oxoimidazolidin-1-yl)-4-methyl-N-(pyrimidin-4-ylmethyl)thiazole-5-carboxamide]
218 to 220	Cc1nc(N2CCN(CC3CC3)C2=O)sc1C(=O)NCc1ncccn1 [Example 12.11, 2-(3-(cyclopropylmethyl)-2-oxoimidazolidin-1-yl)-4-methyl-N-(pyrimidin-2-ylmethyl)thiazole-5-carboxamide]
187 to 189	Cc1nc(N2CCN(CC3CC3)C2=O)sc1C(=O)NCc1cccnn1 [Example 12.12, 2-(3-(cyclopropylmethyl)-2-oxoimidazolidin-1-yl)-4-methyl-N-(pyridazin-3-ylmethyl)thiazole-5-carboxamide]

melting point [°C]	SMILES
> 200	Cc1nc(N2CCN(CC3CC3)C2=O)sc1C(=O)NCc1ccncc1 [Example 12.13, 2-(3-(cyclopropylmethyl)-2-oxoimidazolidin-1-yl)-4-methyl-N-(pyridin-4-ylmethyl)thiazole-5-carboxamide]
165 to 167	Cc1ncc(CNC(=O)c2sc(N3CCN(CC4CC4)C3=O)nc2C)s1 [Example 12.14, 2-(3-(cyclopropylmethyl)-2-oxoimidazolidin-1-yl)-4-methyl-N-((2-methylthiazol-5-yl)methyl)thiazole-5-carboxamide]
172 to 174	Cc1nc(N2CCN(CC3CC3)C2=O)sc1C(=O)NCc1ncco1 [Example 12.15, 2-(3-(cyclopropylmethyl)-2-oxoimidazolidin-1-yl)-4-methyl-N-(oxazol-2-ylmethyl)thiazole-5-carboxamide]
188 to 191	Cc1nc(N2CCN(Cc3ccc(F)cc3)C2=O)sc1C(=O)NCc1cocn1 [Example 12.16, 2-(3-(4-fluorobenzyl)-2-oxoimidazolidin-1-yl)-4-methyl-N-(oxazol-4-ylmethyl)thiazole-5-carboxamide]
185 to 187	Cc1nc(N2CCN(CC(C)C)C2=O)sc1C(=O)NCc1ccncc1 [Example 12.17, 2-(3-isobutyl-2-oxoimidazolidin-1-yl)-4-methyl-N-(pyridin-4-ylmethyl)thiazole-5-carboxamide]
139 to 142	Cc1cncc(CNC(=O)c2sc(N3CCN(CC(C)C)C3=O)nc2C)n1 [Example 12.20, 2-(3-isobutyl-2-oxoimidazolidin-1-yl)-4-methyl-N-((6-methylpyrazin-2-yl)methyl)thiazole-5-carboxamide]
155 to 158	Cc1nc(N2CCN(CC(C)C)C2=O)sc1C(=O)NCc1cnn(C)c1 [Example 12.21, 2-(3-isobutyl-2-oxoimidazolidin-1-yl)-4-methyl-N-((1-methyl-1H-pyrazol-4-yl)methyl)thiazole-5-carboxamide]
158 to 161	Cc1nc(N2CCN(CC(C)C)C2=O)sc1C(=O)NCc1ccn(C)n1 [Example 12.22, 2-(3-isobutyl-2-oxoimidazolidin-1-yl)-4-methyl-N-((1-methyl-1H-pyrazol-3-yl)methyl)thiazole-5-carboxamide]
139 to 140	Cc1nc(-n2cnn(CCC3CC3)c2=O)sc1C(=O)NCc1cccnc1 [Example 13, 2-(1-(2-cyclopropylethyl)-5-oxo-1H-1,2,4-triazol-4(5H)-yl)-4-methyl-N-(pyridin-3-ylmethyl)thiazole-5-carboxamide]
169 to 170	Cc1nc(-n2cnn(CC3CC3)c2=O)sc1C(=O)NCc1ccncc1 [Example 14, 2-(1-(cyclopropylmethyl)-5-oxo-1H-1,2,4-triazol-4(5H)-yl)-4-methyl-N-(pyridin-4-ylmethyl)thiazole-5-carboxamide]
167 to 168	Cc1nc(-n2cnn(CC3CC3)c2=O)sc1C(=O)NCc1cc[nH]n1 [Example 14.1, N-((1H-pyrazol-3-yl)methyl)-2-(1-(cyclopropylmethyl)-5-oxo-1H-1,2,4-triazol-4(5H)-yl)-4-methylthiazole-5-carboxamide]
157 to 158	Cc1nc(-n2cnn(CC3CC3)c2=O)sc1C(=O)NCc1cocn1 [Example 14.2, 2-(1-(cyclopropylmethyl)-5-oxo-1H-1,2,4-triazol-4(5H)-yl)-4-methyl-N-(oxazol-4-ylmethyl)thiazole-5-carboxamide]
160 to 161	Cc1nc(-n2cnn(CC3CC3)c2=O)sc1C(=O)NCc1ccccn1 [Example 14.3, 2-(1-(Cyclopropylmethyl)-5-oxo-1H-1,2,4-triazol-4(5H)-yl)-4-methyl-N-(pyridin-2-ylmethyl)thiazole-5-carboxamide]
160 to 161	Cc1nc(-n2cnn(CC3CC3(F)F)c2=O)sc1C(=O)NCc1cccnc1 (stereo not drawn) [Example 15, 2-(1-((2,2-difluorocyclopropyl)methyl)-5-oxo-1H-1,2,4-triazol-4(5H)-yl)-4-methyl-N-(pyridin-3-ylmethyl)thiazole-5-carboxamide]
169 to 171	Cc1nc(N2CCN(CC3CC3(F)F)C2=O)sc1C(=O)NCc1cccnc1 (stereo not drawn) [Example 16, 2-(3-((2,2-difluorocyclopropyl)methyl)-2-oxoimidazolidin-1-yl)-4-methyl-N-(pyridin-3-ylmethyl)thiazole-5-carboxamide]
156 to 158	Cc1nc(N2CCN(CC3CC3(F)F)C2=O)sc1C(=O)NCc1ncco1 (stereo not drawn) [Example 16.1, 2-(3-((2,2-difluorocyclopropyl)methyl)-2-oxoimidazolidin-1-yl)-4-methyl-N-(oxazol-2-ylmethyl)thiazole-5-carboxamide]
182 to 184	Cc1nc(N2CCN(CC3CC3(F)F)C2=O)sc1C(=O)NCc1cncs1 (stereo not drawn) [Example 16.2, 2-(3-((2,2-difluorocyclopropyl)methyl)-2-oxoimidazolidin-1-yl)-4-methyl-N-(thiazol-5-ylmethyl)thiazole-5-carboxamide]
157 to 159	Cc1csc(CNC(=O)c2sc(N3CCN(CC4CC4(F)F)C3=O)nc2C)n1 (stereo not drawn) [Example 16.3, 2-(3-((2,2-difluorocyclopropyl)methyl)-2-oxoimidazolidin-1-yl)-4-methyl-N-((4-methylthiazol-2-yl)methyl)thiazole-5-carboxamide]
